Converted amounts (≈) assume the structure as drawn. Like-named read-outs stand apart in the source and are kept apart here.
Columns and labels:
Assay type in all cases: physicochemical
[1] = Dynamic Vapor Sorption (DVS); conditions: for water uptake at 80% RH: 80% relative humidity
Method: Dynamic Vapor Sorption (DVS) Moisture sorption/desorption data was collected on a DVS Intrinsic PLUS (SMS, UK). The sample was placed into a tared sample chamber and automatically weighed. The sample was dried at 40° C./0%0 RH until the dm/dt was less than 0.00200 and cooled to 25° C. [table]

[2] = Solubility of Compound 1 in solvents
Method: Compound 1 is insoluble in n-heptane and water (<1 mg/mL) and soluble (>100 mg/mL) in methanol, ethanol, acetone, tetrahydrofuran, methyl ethyl ketone, ethyl acetate, acetonitrile, isobutanol, isopropyl alcohol and isopropyl acetate. Compound 1 has a solubility of about 60 mg/mL in methyl t-butyl ether.

[3] = Stability at 60° C. and 40° C. at 75% relative humidity for 9 days (UPLC purity, XRPD); conditions: for Purity −3 d: 3 days; for Purity −9 d: 9 days; for XRPD: crystal form check
Method: Compound 1 and Compound 2 were evaluated for stability at 60° C. and 40° C. at 75% relative humidity for 9 days. At 0, 3, and 9 days, the samples were dissolved with diluent to prepare a solution for purity analysis by UPLC. Solid samples were also analyzed by XRPD to check the crystal form.

[4] = Comparison dissolution trials in water and biorelevant media; conditions: for solubility at 0.5 h: read-out: Solubility (mg/mL) 0.5 h; for solubility at 2 h: read-out: Solubility (mg/mL) 2 h; for solubility at 24 h: read-out: Solubility (mg/mL) 24 h
Method: Comparison dissolution trials were performed on Compounds 1 and 2. About 20 mg of each sample was weighed into a sample vial and then 4 mL of media was added to make a suspension. All suspensions were shaken at 37° C. with a rate of 200 rpm. […] He pH of the filtrate was measured, and the filter cake was analyzed by XRPD. […] In biorelevant dissolution media FaSSIF and FeSSIF, the solubility of the Compound 1 and Compound 2 were similar.

[5] = Slurry experiments of amorphous hydrochloride; conditions: one day, XRPD
Method: An amorphous solid state form of (S)—N-(3-(2-(((R)-1-hydroxypropan-2-yl)amino)-6-morpholinopyridin-4-yl)-4-methylphenyl)-3-(2,2,2-trifluoroethyl)pyrrolidine-1-carboxamide hydrochloride is attainable. Amorphous (S)—N-(3-(2-(((R)-1-hydroxypropan-2-yl)amino)-6-morpholinopyridin-4-yl)-4-methylphenyl)-3-(2,2,2-trifluoroethyl)pyrrolidine-1-carboxamide hydrochloride was formed by rapid evaporation of 15 mg of Compound 2 dissolved in 0.5 mL of methanol. The solid was confirmed to be amorphous by XRPD. Slurry of amorphous (S)—N-(3-(2-(((R)-1-hydroxypropan-2-yl)amino)-6-morpholinopyridin-4-yl)-4-methylphenyl)-3-(2,2,2-trifluoroethyl)pyrrolidine-1-carboxamide hydrochloride in 0.5 mL of the solvents in Table 13 were prepared. Each suspension was stirred for one day at 50° C. and at RT. Each suspension was filtered and analyzed by XRPD. In each experiment, conversion from amorphous (S)—N-(3-(2-(((R)-1-hydroxypropan-2-yl)amino)-6-morpholinopyridin-4-yl)-4-methylphenyl)-3-(2,2,2-trifluoroethyl)pyrrolidine-1-carboxamide hydrochloride to crystalline Compound 2 was observed.

[6] = simulated gastric fluid, thermodynamic from solid, SGF, 37° C.
[7] = thermodynamic from solid, FaSSIF, 37° C.
[8] = thermodynamic from solid, FeSSIF, 37° C.
[9] = thermodynamic from solid, Water, 37° C.

With `Br.Cc1ccc(NC(=O)N2CC[C@@H](CC(F)(F)F)C2)cc1-c1cc(N[C@H](C)CO)nc(N2CCOCC2)c1` [Compound 3, (S)—N-(3-(2-(((R)-1-hydroxypropan-2-yl)amino)-6-morpholinopyridin-4-yl)-4-methylphenyl)-3-(2,2,2-trifluoroethyl)pyrrolidine-1-carboxamide hydrobromide] the hygroscopicity ([1]; DVS) was “slightly hydroscopic”, the “water uptake at 80% RH” value ([1]; DVS, 25° C.) was 0.27% and the “water uptake at 90% relative humidity” value ([1]; DVS, 25° C., 90% relative humidity) was 0.45%.
In the case of `Cc1ccc(NC(=O)N2CC[C@@H](CC(F)(F)F)C2)cc1-c1cc(N[C@H](C)CO)nc(N2CCOCC2)c1` [Compound 1, (S)—N-(3-(2-(((R)-1-hydroxypropan-2-yl)amino)-6-morpholinopyridin-4-yl)-4-methylphenyl)-3-(2,2,2-trifluoroethyl)pyrrolidine-1-carboxamide], the hygroscopicity ([1]; DVS) is reported as “slightly hygroscopic”, the “water uptake at 80% RH” value ([1]; DVS, 25° C.) is reported as 2% and the “solid form after DVS testing” value ([1]; after DVS testing) is reported as “remained amorphous”. For the same molecule, the solubility ([2]; acetone, organic solvent or mixture) was over 100000 µg/mL, the solubility ([2]; acetonitrile, organic solvent or mixture) was over 100000 µg/mL and the solubility ([2]; ethanol, organic solvent or mixture) was over 100000 µg/mL. For the same molecule, the solubility ([2]; ethyl acetate, organic solvent or mixture) was over 100000 µg/mL, the solubility ([2]; isobutanol, organic solvent or mixture) was over 100000 µg/mL and the solubility ([2]; isopropyl acetate, organic solvent or mixture) was over 100000 µg/mL. For the same molecule, the solubility ([2]; isopropyl alcohol, organic solvent or mixture) was over 100000 µg/mL, the solubility ([2]; methanol, organic solvent or mixture) was over 100000 µg/mL and the solubility ([2]; methyl ethyl ketone, organic solvent or mixture) was over 100000 µg/mL. For the same molecule, the solubility ([2]; methyl t-butyl ether, organic solvent or mixture) was about 60000 µg/mL (≈ 115000 µM), the solubility ([2]; n-heptane, organic solvent or mixture) was under 1000 µg/mL and the solubility ([2]; tetrahydrofuran, organic solvent or mixture) was over 100000 µg/mL. The solubility ([2]; water) was under 1000 µg/mL, the “Purity −0 d (Area %)” value ([3]; 0 days (initial), UPLC) was 99.43 Area % and the “Purity −3 d” value ([3]; 40° C./75% RH, UPLC) was 99.42 Area %. The “Purity −9 d” value ([3]; 40° C./75% RH, UPLC) was 99.40 Area %, the XRPD ([3]; 40° C./75% RH) was “No change” and the “Purity −3 d” value ([3]; 60° C., UPLC) was 99.39 Area %. For the same molecule, the “Purity −9 d” value ([3]; 60° C., UPLC) was 99.42 Area %, the XRPD ([3]; 60° C.) was “No change” and the solid form conversion ([4]; FaSSGF, filter cake by XRPD) was “converted to Compound 2”. The “solubility of Compound 1 and Compound 2 compared” value ([4]; FaSSIF and FeSSIF) was “similar”, the “pH of the filtrate” value ([4]; Water medium) was “(pH 6.4)” and the solubility at 0.5 h [4, 6] was 0.48 mg/mL (≈ 920 µM). It also gave a solubility at 2 h [4, 6] of 0.35 mg/mL (≈ 671 µM), a solubility at 24 h [4, 6] of 0.83 mg/mL (≈ 1590 µM) and a solubility at 0.5 h [4, 7] of 0.024 mg/mL (≈ 46 µM). The solubility at 2 h [4, 7] was 0.022 mg/mL (≈ 42.2 µM), the solubility at 24 h [4, 7] was 0.018 mg/mL (≈ 34.5 µM) and the solubility at 0.5 h [4, 8] was 0.15 mg/mL (≈ 288 µM). For the same molecule, the solubility at 2 h [4, 8] was 0.17 mg/mL (≈ 326 µM), the solubility at 24 h [4, 8] was 0.15 mg/mL (≈ 288 µM) and the solubility at 0.5 h [4, 9] was 0.004 mg/mL (≈ 7.67 µM). It also gave a solubility at 2 h [4, 9] of 0.004 mg/mL (≈ 7.67 µM), a solubility at 24 h [4, 9] of 0.009 mg/mL (≈ 17.3 µM) and a solubility ([4]; thermodynamic from solid, water, 37° C.) of under 9 µg/mL.
With `Cc1ccc(NC(=O)N2CC[C@@H](CC(F)(F)F)C2)cc1-c1cc(N[C@H](C)CO)nc(N2CCOCC2)c1.Cl` [amorphous Compound 2, (S)—N-(3-(2-(((R)-1-hydroxypropan-2-yl)amino)-6-morpholinopyridin-4-yl)-4-methylphenyl)-3-(2,2,2-trifluoroethyl)pyrrolidine-1-carboxamide hydrochloride] the “Resulting Solid State Form” value ([5]; slurry in Acetone, 50° C.) was “Form I”, the “Resulting Solid State Form” value ([5]; slurry in Acetone, RT) was “Form I” and the “Resulting Solid State Form” value ([5]; slurry in Ethanol, 50° C.) was “Form I”. For the same molecule, the “Resulting Solid State Form” value ([5]; slurry in Ethanol, RT) was “Form I”, the “Resulting Solid State Form” value ([5]; slurry in Ethyl acetate, 50° C.) was “Form I” and the “Resulting Solid State Form” value ([5]; slurry in Ethyl acetate, RT) was “Form I”. The “Resulting Solid State Form” value ([5]; slurry in Water, 50° C.) was “Form I”, the “Resulting Solid State Form” value ([5]; slurry in Water, RT) was “Form I” and the “Resulting Solid State Form” value ([5]; slurry in n-Heptane, 50° C.) was “Form I”. For the same molecule, the “Resulting Solid State Form” value ([5]; slurry in n-Heptane, RT) was “Form I”.

Reference: patent US12692248B2, “Solid state forms of (S)-N-(3-(2-(((R)-1-hydroxypropan-2-yl)amino)-6-morpholinopyridin-4-yl)-4-methylphenyl)-3-(2,2,2-trifluoroethyl)pyrrolidine-1-carboxamide and salts thereof” (PIERRE FABRE MEDICAMENT, priority 2021, dated 2026)
